# Measured values as given in patent publication US5929093A, “Bifunctional acetylcholinesterase reactivators” (priority 1997, dated 1999).
# Molecular target: T1, human red blood cell AChE (Homo sapiens, UniProt P22303)
# T1 construct: human red blood cell AChE; from tissue; host or cells: human red blood cells
# Assay: AChE reactivation assay with echothiophate-inhibited human red blood cell AChE
# Type: biochemical
# Conditions: for activation at 1 µM: read-out: Percentages of AChE reactivation
# [1] = single concentration 10^-6 M, added for 1 hour, AChE inhibited by echothiophate 10^-7 M, means ± standard errors of 4 measurements
# T1 sequence (P22303 other isoform, or with tags, fused parts or gaps): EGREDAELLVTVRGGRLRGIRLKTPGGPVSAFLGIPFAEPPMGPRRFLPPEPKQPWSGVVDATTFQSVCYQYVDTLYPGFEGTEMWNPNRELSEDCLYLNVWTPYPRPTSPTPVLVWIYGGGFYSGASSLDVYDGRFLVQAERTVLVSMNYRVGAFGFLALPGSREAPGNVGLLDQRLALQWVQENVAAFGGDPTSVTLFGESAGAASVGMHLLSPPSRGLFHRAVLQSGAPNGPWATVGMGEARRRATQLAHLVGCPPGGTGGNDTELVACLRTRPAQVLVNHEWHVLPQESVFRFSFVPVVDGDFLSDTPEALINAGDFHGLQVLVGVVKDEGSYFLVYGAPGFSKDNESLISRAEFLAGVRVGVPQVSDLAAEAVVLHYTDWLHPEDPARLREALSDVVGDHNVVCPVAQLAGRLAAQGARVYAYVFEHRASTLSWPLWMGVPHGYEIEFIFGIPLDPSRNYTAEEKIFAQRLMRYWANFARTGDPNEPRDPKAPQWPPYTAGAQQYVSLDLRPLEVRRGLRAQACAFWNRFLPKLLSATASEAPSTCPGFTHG
SMILES,activation at 1 µM [1],Percentages of AChE reactivation [1],"potency in reactivation relative to 2-PAM (full dose-response curves) (full dose-response curves, compared with 2-PAM)"
"ON=Cc1cccc[n+]1CCCCCCCC[n+]1ccccc1C=NO [Compound 3c, 1,8-Octylene-bis-N,N'-2-pyridiniumaldoxime dichloride]",69 ± 4.7%,–,–
"C[n+]1ccccc1C=NO [Compound 2-PAM, 2-pralidoxime, reference compound]",17%,17 ± 2.8%,–
"ON=Cc1cc[n+](CCCCCCCC[n+]2ccc(C=NO)cc2)cc1 [Compound 1c, 1,8-Octylene-bis-N,N'-4-pyridiniumaldoxime dibromide]",44 ± 1.7%,–,–
"ON=Cc1cccc[n+]1CCCCCCCCC[n+]1ccccc1C=NO [Compound 3d, 1,9-Nonylene-bis-N,N'-2-pyridiniumaldoxime dichloride]",58 ± 0.5%,–,–
"ON=Cc1cc[n+](CCCCCCC[n+]2ccc(C=NO)cc2)cc1 [Compound 1b, 1,7-Heptylene-bis-N,N'-4-pyridiniumaldoxime dibromide]",61 ± 3.2%,–,ten-fold more potent
"ON=Cc1cc[n+](CCCCCCCCC[n+]2ccc(C=NO)cc2)cc1 [Compound 1d, 1,9-Nonylene-bis-N,N'-4-pyridiniumaldoxime dibromide]",31 ± 2.3%,–,–
"ON=Cc1cc[n+](CCCCCC[n+]2ccc(C=NO)cc2)cc1 [Compound 1a, 1,6-Hexylene-bis-N,N'-4-pyridiniumaldoxime dibromide]",47 ± 1.8%,–,–
"ON=Cc1cccc[n+]1CCCCCCC[n+]1ccccc1C=NO [Compound 3b, 1,7-Heptylene-bis-N,N'-2-pyridiniumaldoxime dichloride]",80 ± 3.7%,–,–
"ON=Cc1cccc[n+]1CCCCCC[n+]1ccccc1C=NO [Compound 3a, 1,6-Hexylene-bis-N,N'-2-pyridinium aldoxime dichloride]",67 ± 0.8%,–,–
